Reference: BindingDB's records for doi:10.7270/Q2CV4GCW (The Scripps Research Institute Molecular Screening Center, 2014)

Biological target: T1, Group 3 secretory phospholipase A2 (Homo sapiens, UniProt Q9NZ20)
T1 sequence (Q9NZ20 whole entry): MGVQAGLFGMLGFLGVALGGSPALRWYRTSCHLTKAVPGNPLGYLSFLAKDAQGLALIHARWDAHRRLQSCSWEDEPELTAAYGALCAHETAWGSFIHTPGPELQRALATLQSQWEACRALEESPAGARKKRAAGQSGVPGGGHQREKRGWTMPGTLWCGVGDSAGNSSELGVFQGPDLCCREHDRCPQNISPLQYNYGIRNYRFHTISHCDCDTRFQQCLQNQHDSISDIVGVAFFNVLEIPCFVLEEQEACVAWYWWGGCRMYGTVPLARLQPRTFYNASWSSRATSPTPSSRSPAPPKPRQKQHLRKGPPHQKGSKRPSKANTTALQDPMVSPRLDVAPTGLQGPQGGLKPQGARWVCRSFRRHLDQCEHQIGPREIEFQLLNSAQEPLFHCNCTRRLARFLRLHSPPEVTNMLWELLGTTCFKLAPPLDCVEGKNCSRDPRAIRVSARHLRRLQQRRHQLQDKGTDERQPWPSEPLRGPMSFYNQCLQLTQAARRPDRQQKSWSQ
Test: human group III sPLA2 inhibitors, dose response, biochemical, QFRET, IC50 (AID 743457)

Row | SMILES | IC50 [µM]
1 | Cc1noc(/C=C/N(C)C)c1S(=O)(=O)N1CCCC(C(=O)NCc2ccco2)C1 (stereo not drawn) | 122
2 | COCCN1C(=O)/C(=C/c2c(OC)cc(OC)cc2OC)C(=O)N(c2ccccc2)C1=O | 100
3 | NS(=O)(=O)c1ccc(Nc2nc3ccccc3nc2NS(=O)(=O)c2cccc([N+](=O)[O-])c2)cc1 | 42.5
4 | Cc1c(Cl)cccc1N=C(S)NCCc1ccc(S(N)(=O)=O)cc1 | 122
5 | COc1ccc(C=NNC(=O)CSc2n[nH]c(=O)[nH]c2=O)cc1 [2-[[3,5-bis(oxidanylidene)-2H-1,2,4-triazin-6-yl]sulfanyl]-N-[(4-methoxyphenyl)methylideneamino]ethanamide] | 48
6 | COC(=O)CCC(=O)OC1(C)C(=O)C2=CN(CCCOC(C)C)C(c3ccc(OC)cc3)=CC2=C(Br)C1=O (stereo not drawn) [4-O-[5-bromo-3-(4-methoxyphenyl)-7-methyl-6,8-dioxo-2-(3-propan-2-yloxypropyl)isoquinolin-7-yl] 1-O-methyl butanedioate] | 122
7 | Cc1n[nH]c(N=Nc2ccc(O)cc2)n1 [4-[(5-methyl-1H-1,2,4-triazol-3-yl)hydrazinylidene]cyclohexa-2,5-dien-1-one] | 20.5
8 | Cc1ccc(O)c(-c2cc(C(=O)Nc3ccc(S(=O)(=O)Nc4nccc(C)n4)cc3)[nH]n2)c1 [5-(2-Hydroxy-5-methyl-phenyl)-2H-pyrazole-3-carboxylic acid [4-(4-methyl-pyrimidin-2-ylsulfamoyl)-phenyl]-amide] | 122
9 | COc1cc(/C=C(/C#N)c2nc3ccccc3[nH]2)ccc1OCc1ccc(C(=O)O)o1 [5-[[4-[(Z)-2-(1H-benzimidazol-2-yl)-2-cyanoethenyl]-2-methoxyphenoxy]methyl]-2-furancarboxylic acid] | 66.3
10 | CSCc1nc2sc(C(=O)Nc3nc(C)cs3)c(C)c2c(=O)[nH]1 [5-methyl-2-(methylsulfanylmethyl)-N-(4-methyl-1,3-thiazol-2-yl)-4-oxo-3H-thieno[2,3-d]pyrimidine-6-carboxamide] | 122
11 | O=C1c2ccccc2SC1/C=N/c1cc([N+](=O)[O-])ccc1O (stereo not drawn) [(2Z)-2-[[(5-nitro-2-oxidanyl-phenyl)amino]methylidene]-1-benzothiophen-3-one] | 122
12 | CCN(CC)c1nc2c3c(nc4c(c3c1C#N)CC(=O)N4c1ccc(Cl)cc1)NC(C)=N2 [MLS000389664] | 25
13 | CCCCn1c(NS(=O)(=O)c2ccccc2)c(C(=O)OCC)c2nc3ccccc3nc21 [MLS000589117] | 40.6
14 | Cc1ccc(-n2ncc3c(NNC(=O)c4ccco4)ncnc32)cc1C [MLS001235991] | 122
15 | O=C1C([N+](=O)[O-])=CC(Cl)=CC1/C=N/NC(=O)C(O)(c1ccccc1)c1ccccc1 (stereo not drawn) [N''''-[(E)-(3-chloro-5-nitro-6-oxocyclohexa-2,4-dien-1-ylidene)methyl]-2-hydroxy-2,2-diphenylacetohydrazide] | 32.5
16 | C=CCSC(N)=NN=CC1C=C(Br)C=C([N+](=O)[O-])C1=O (stereo not drawn) [N''-[[(E)-(3-bromo-5-nitro-6-oxo-1-cyclohexa-2,4-dienylidene)methyl]amino]carbamimidothioic acid prop-2-enyl ester] | 40.6
17 | Cc1ccc(C(=O)Nc2nc(C(C)(C)C)cs2)s1 [N-(4-tert-butyl-2-thiazolyl)-5-methyl-2-thiophenecarboxamide] | 122
18 | Cc1ccc(C(=O)n2c3ccccc3c3ccccc32)cc1 [carbazol-9-yl-(4-methylphenyl)methanone] | 30.3
